Results as given in US20110217240A1, “IMAGING NEUROLEPTIC COMPOUNDS” (priority 2008, published 2011).

Test system: apomorphine-induced dopaminergic neurotransmission
Experiment: BOLD fMRI of neuronal/glial activity in conscious rats pre-treated with an antipsychotic and challenged with apomorphine
Type: in vivo, rat
Conditions: for neuronal/glial activity in the anterior thalamic nuclei / neuronal/glial activity in the pituitary gland: antipsychotic pre-treatment i.p. (chlorpromazine, clozapine, olanzapine 5 mg/kg; haloperidol 1 mg/kg)
Source text: To image the brain activity of live rats (Charles River Laboratories, Wilmington, Mass.), the rats were anesthetized with 2-3% isoflurane (Abbott Laboratories, North Chicago, Ill.). Nine (9) rats were used for each experimental condition. A topical anesthetic of 10% lidocaine gel was applied to the skin and soft tissue around the ear canals and over the bridge of the nose. A plastic semi-circular headpiece with blunted ear supports that fit into the ear canals was positioned over the ears. The head was placed into a cylindrical head holder with the rat's canines secured over a bite bar and ears positioned inside the head holder with adjustable screws fitted into lateral sleeves. An adjustable, receive-only surface coil built into the head holder was pressed firmly on the head and locked into place. The body of the rat was placed into a body restrainer. The body restrainer “floats” down the center of the chassis connecting at the front and rear end-plates and buffered by rubber gaskets. The head piece locks into a mounting post on the front of the chassis. This design isolates all of the body movements from the head restrainer and minimizes motion artifact. Once the rat was positioned in the body holder, a transmit-only volume coil was slid over the head restrainer and locked into position.
When the rats were fully conscious, the restraining unit was placed into a black opaque tube mock scanner with a tape-recording of an MRI pulse sequence. This acclimation protocol lasted for 60 minutes in order to simulate the bore of the magnet and the imaging protocol. This procedure was repeated every other day for four days.
Experiments were conducted in a Bruker Biospec 4.7-T/40-cm horizontal magnet (Oxford Instrument, Oxford, U.K.) equipped with a Biospec Bruker console (Bruker, Billerica, Mass., U.S.A.) and a 20 G/cm magnetic field gradient insert (internal diameter=12 cm) capable of a 120 μs rise time (Bruker). Radiofrequency (RF) signals were sent and received with the dual coil electronics built into the animal restrainer (Ludwig et al., 2004, J. Neurosci. Methods 132(2):125-35). The volume coil for transmitting RF signal features an 8-element microstrip line configuration in conjunction with an outer copper shield. The arch-shaped geometry of the receiving surface coil provides excellent coverage and high signal-to-noise. To prevent mutual coil interference, the volume and surface coils were actively tuned and detuned.
Functional images were acquired using a multi-slice fast spin echo sequence. A single data acquisition included twelve (12), 1.2 mm slices collected in 6 seconds (field of view (FOV) 3.0 cm; data matrix 64×64; repetition time (TR) 1.43 sec, effective echo time (Eff TE) 53.3 msec, echo time (TE) 7 msec; rapid acquisition with relaxation enhancement (RARE) factor 16, number of excitations (NEX) 1). This sequence was repeated 100 times in a 10 minute imaging session, consisting of 5 minutes of baseline data followed by 5 minutes of stimulation data. At the beginning of each imaging session, a high resolution anatomical data set was collected using a RARE pulse sequence (12 slice; 1.2 mm; FOV 3.0 cm; 256×256; TR 2.1 sec; TE 12.4 msec; NEX 6; 7 minute acquisition time).
For each subject, rigid body motion in x-, y- and z-direction was computed with Stimulate software (Strupp, 1996, NeuroImage 3:S607) using center of intensity method. […] A conservative criteria of 120 μm standard deviation of motion in any direction was set as acceptance criteria.

[1] = then apomorphine 20 μg/10 μl ICV, BOLD fMRI, conscious rat
[2] = pre-treatment 5 mg/kg i.p., then apomorphine 20 μg/10 μl ICV, BOLD fMRI, conscious rat
[3] = apomorphine 20 μg/10 μl ICV, BOLD fMRI, conscious rat

CN(C)CCCN1c2ccccc2Sc2ccc(Cl)cc21 [chlorpromazine]
neuronal/glial activity in the dorsal striatum (antipsychotic pre-treatment i.p. (chlorpromazine, clozapine, olanzapine 5 mg/kg), then apomorphine 20 μg/10 μl ICV, BOLD fMRI, conscious rat): reduced
neuronal/glial activity in the anterior thalamic nuclei [1]: pronounced reduction
neuronal/glial activity in the pituitary gland [1]: pronounced reduction
neuronal/glial activity in the CA1 region of the hippocampus [2]: significant reduction in neuronal/glial activity
neuronal/glial activity in the CA3 region of the hippocampus [2]: significant reduction in neuronal/glial activity
neuronal/glial activity in the dentate gyms region of the hippocampus [2]: significant reduction in neuronal/glial activity
neuronal/glial activity in the subiculum region of the hippocampus [2]: significant reduction in neuronal/glial activity
neuronal/glial activity throughout the hippocampus [2]: selective reduction in activity

CN1CCc2cccc3c2[C@H]1Cc1ccc(O)c(O)c1-3 [apomorphine]
activation of the anterior thalamic nuclei by apomorphine [3]: activated
activation of the dorsal striatum by apomorphine [3]: activated
activation of the pituitary gland by apomorphine [3]: activated
activation of the mesocorticolimbic dopamine system (reward pathway) by apomorphine (apomorphine alone, 20 μg/10 μl ICV, BOLD fMRI, conscious rat): activated
change in BOLD signal intensity in the pituitary gland (time course following ICV administration of apomorphine (FIG. 3A)): increased
change in BOLD signal intensity in the anterior thalamic nuclei (time course following ICV administration of apomorphine (FIG. 3B)): increased
change in BOLD signal intensity in the dorsal striatum (time course following ICV administration of apomorphine (FIG. 3C)): increased

O=C(CCCN1CCC(O)(c2ccc(Cl)cc2)CC1)c1ccc(F)cc1 [haloperidol]
neuronal/glial activity in the anterior thalamic nuclei [1]: reducing apomorphine-induced neuronal/glial activity
neuronal/glial activity in the pituitary gland [1]: reducing apomorphine-induced neuronal/glial activity
